Data published in patent US10703746B2, “Mutant IDH1 inhibitors useful for treating cancer” (THE UNITED STATES OF AMERICA, AS REPRESENTED BY THE …, priority 2014, dated 2020).

Assays:
[1] = molecular target: IDH1 R132H (Homo sapiens, UniProt O75874, R132H); assay: IDH1 R132H enzymatic assay (NADPH depletion coupled to diaphorase/resazurin); type: biochemical
[2] = molecular target: IDH1 R132C (Homo sapiens, UniProt O75874, R132C); assay: IDH1 R132C enzymatic assay (NADPH depletion coupled to diaphorase/resazurin); type: biochemical
Summary of the method: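 NADPH depletion, read via diaphorase/resazurin coupling, after adding substrate at 0.6 mM α-KG and 0.012 mM NADPH. Beforehand, 0.00032 mg/mL enzyme sat with compound 30 min at room temperature in pH 6.5 potassium phosphate buffer with MgCl2, glycerol and BSA.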

[3] = IDH1 R132H enzymatic inhibition, IC50 class
[4] = IDH1 R132C enzymatic inhibition, IC50 class
[5] = enzymatic inhibition, IDH1 R132H
[6] = enzymatic inhibition, IDH1 R132C

IDH1 R132H, sequence (O75874 whole entry R132H): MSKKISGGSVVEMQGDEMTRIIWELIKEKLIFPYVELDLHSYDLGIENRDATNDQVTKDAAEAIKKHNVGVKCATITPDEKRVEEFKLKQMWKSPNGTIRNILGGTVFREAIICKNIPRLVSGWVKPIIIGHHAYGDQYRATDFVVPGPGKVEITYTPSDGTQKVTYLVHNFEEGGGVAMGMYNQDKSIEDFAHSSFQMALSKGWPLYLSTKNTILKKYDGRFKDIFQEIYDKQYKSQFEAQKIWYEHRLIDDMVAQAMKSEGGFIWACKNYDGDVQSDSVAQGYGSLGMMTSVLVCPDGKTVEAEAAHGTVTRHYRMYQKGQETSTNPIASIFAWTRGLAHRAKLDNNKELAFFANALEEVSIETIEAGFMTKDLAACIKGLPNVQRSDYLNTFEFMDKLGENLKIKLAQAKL
IDH1 R132C, sequence (O75874 whole entry R132C): as the sequence (O75874 whole entry R132H) above, with H132C counted along it

Row | Compound | IC50 [1, 3] | IC50 [2, 4] | IC50 [1, 5] | IC50 [2, 6]
1 | COc1ccc(OC)c(-n2c3c(cc(-c4cc(-c5ccccc5)[nH]n4)c2=O)C(=O)CC(C)(C)C3)c1 [Compound 294] | > 20000 nM | 5000 to 20000 nM |  | 
2 | CCOc1cccc(CC)c1-n1c(C=C(C)C)c(C(=O)N2CCNCC2)cc(-c2nc(-c3ccc(Cl)cc3)cs2)c1=O [Compound 578] |  |  | < 300 nM | < 300 nM
3 | CC(C)=Cc1c(C(=O)N2CCNCC2)cc(-c2nc(-c3ccc(Cl)cc3)cs2)c(=O)n1-c1ccccc1C [Compound 437] |  |  | < 300 nM | 300 to 1000 nM
4 | CN(C)c1ccccc1-n1c2c(cc(-c3nc(-c4ccc(Cl)cc4)cs3)c1=O)C(=O)CC(C)(C)C2 [Compound 56] | 300 to 1000 nM | 300 to 1000 nM |  | 
5 | CCc1cccc(CC)c1-n1c(C)c(C(=O)N2CCNC[C@H]2C)cc(-c2nc(-c3ccc(Cl)cc3)cs2)c1=O [Compound 142] | < 300 nM | 300 to 1000 nM |  | 
6 | CC(C)=Cc1c(C(=O)N2CCNCC2)cc(-c2nc(-c3ccc(Cl)cc3)cs2)c(=O)n1-c1ccccc1C(C)(C)C [Compound 372] | < 300 nM | < 300 nM |  | 
7 | CC(C)=Cc1c(C(=O)N2CCNCC2)cc(-c2nc(-c3ccc(Cl)cc3)cs2)c(=O)n1-c1ccccc1OCC(F)(F)F [Compound 589] |  |  | < 300 nM | < 300 nM
8 | CCc1ccc(Cl)c(CC)c1-n1c2c(cc(-c3nc(-c4ccc(Cl)cc4)cs3)c1=O)C(=O)CC(C)(C)C2 [Compound 548] |  |  | < 300 nM | < 300 nM
9 | CCc1cccc(CC)c1-n1c2c(cc(-c3nc(-c4ccc(O)cc4)cs3)c1=O)C(=O)CC(C)(C)C2 [Compound 281] | 5000 to 20000 nM | 5000 to 20000 nM |  | 
10 | Cc1ccc(N)cc1-n1c2c(cc(-c3nc(-c4ccc(Cl)cc4)cs3)c1=O)C(=O)CC(C)(C)C2 [Compound 26] | 1000 to 5000 nM | 1000 to 5000 nM |  | 
11 | CCc1cccc(OC(C)C)c1-n1c(C=C(C)C)c(C(=O)N2CCNCC2)cc(-c2nc(-c3ccc(Cl)cc3)cs2)c1=O [Compound 508] |  |  | < 300 nM | < 300 nM
12 | COc1ccc(OC)c(-n2c3c(cc(-c4cccc(-c5ccc(Cl)cc5)n4)c2=O)C(=O)CC(C)(C)C3)c1 [Compound 284] | 5000 to 20000 nM | 5000 to 20000 nM |  | 
13 | COc1ccccc1-n1c2c(cc(-c3nc(-c4ccc(Cl)cc4)cs3)c1=O)C(=O)CC(C)(C)C2 [Compound 12] | 1000 to 5000 nM | 1000 to 5000 nM |  | 
14 | COc1ccc(OC)c(-n2c3c(cc(-c4nc(-c5ccc(Cl)cc5)no4)c2=O)C(=O)CC(C)(C)C3)c1 [Compound 306] | 5000 to 20000 nM | 5000 to 20000 nM |  | 
15 | COc1ccc(OC)c(-n2c3c(cc(-c4nc5ccc(Cl)cc5s4)c2=O)C(=O)CC(C)(C)C3)c1 [Compound 149] | > 20000 nM | 1000 to 5000 nM |  | 
16 | CCc1cccc(CC)c1-n1c(C=C(C)C)c(C(=O)N2CCNC(C)C2C)cc(-c2nc(-c3ccc(Cl)cc3)cs2)c1=O (stereo not shown) [Compound 646] | < 300 nM | < 300 nM |  | 
17 | COc1ccc(OC)c(-n2c3c(cc(-c4cccc(-c5ccc(Cl)cc5)c4)c2=O)C(=O)CC(C)(C)C3)c1 [Compound 111] | > 20000 nM | 5000 to 20000 nM |  | 
18 | CCc1cccc(CC)c1-n1c(CC(C)C)c(CO)cc(-c2nc(-c3ccc(Cl)cc3)cs2)c1=O [Compound 391] | 300 to 1000 nM | 300 to 1000 nM |  | 
19 | CCc1cccc(CC)c1-n1c(C)c(C(=O)N2CCNC(=O)C2)cc(-c2nc(-c3ccc(Cl)cc3)cs2)c1=O [Compound 138] | < 300 nM | 1000 to 5000 nM |  | 
20 | COc1ccc(C#N)cc1-n1c(C=C(C)C)c(C(=O)N2CCNCC2)cc(-c2nc(-c3ccc(Cl)cc3)cs2)c1=O [Compound 603] |  |  | 300 to 1000 nM | 300 to 1000 nM
21 | CCc1cccc(CC)c1-n1c(CC(C)C)c(C(=O)N2CCNC(C)(CO)C2)cc(-c2nc(-c3ccc(Cl)cc3)cs2)c1=O (stereo not shown) [Compound 273] | 300 to 1000 nM | < 300 nM |  | 
22 | CCc1ncc(F)cc1-n1c(C=C(C)C)c(C(=O)N2CCNCC2)cc(-c2nc(-c3ccc(C(F)F)cc3)cs2)c1=O [Compound 524] |  |  | < 300 nM | < 300 nM

Other lines, results leading:

Row | IC50 [1, 3] | IC50 [2, 4] | IC50 [1, 5] | IC50 [2, 6] | Compound
23 |  |  | 1000 to 5000 nM | 5000 to 20000 nM | CCc1ncc(OC)cc1-n1c(C=C(C)C)c(C(=O)N2CCNCC2)cc(-c2nc(-c3ccc(C(F)F)cn3)cs2)c1=O [Compound 466]
24 | 300 to 1000 nM | 300 to 1000 nM |  |  | CCc1cccc(CC)c1-n1c(CC(C)C)c(C(=O)N2CC(=O)N[C@@H](C(=O)O)C2)cc(-c2nc(-c3ccc(Cl)cc3)cs2)c1=O [Compound 297]
25 | < 300 nM | < 300 nM |  |  | CC(C)=Cc1c(C(=O)N2CCNCC2)cc(-c2nc(-c3ccc(Cl)cc3)cs2)c(=O)n1-c1c(Cl)cccc1OC(C)C [Compound 367]
26 | < 300 nM | 300 to 1000 nM |  |  | CCOc1ncc(C)cc1-n1c(C=C(C)C)c(C(=O)N2CCNCC2)cc(-c2nc(-c3ccc(C(F)F)nc3)cs2)c1=O [Compound 326]
27 | < 300 nM | < 300 nM |  |  | CCc1cccc(CC)c1-n1c(C(C)C)c(C(=O)N2CCNC(C(=O)O)C2)cc(-c2nc(-c3ccc(Cl)cc3)cs2)c1=O (stereo not shown) [Compound 88]
28 |  |  | < 300 nM | < 300 nM | CCc1cccc(CC)c1-n1c(C=C(C)C)c(C(=O)N2CCNCC2)cc(-c2nc(-c3ccc(Cl)cc3)cs2)c1=O [Compound 408]
29 | > 20000 nM | 5000 to 20000 nM |  |  | CC(c1ccccc1)n1c2c(cc(-c3nc(-c4ccc(Cl)cc4)cs3)c1=O)C(=O)CC(C)(C)C2 (stereo not shown) [Compound 11]
30 | 1000 to 5000 nM | < 300 nM |  |  | CCc1cccc(CC)c1-n1c(CC(C)C)c(C(=O)NC(CC)CO)cc(-c2nc(-c3ccc(Cl)cc3)cs2)c1=O (stereo not shown) [Compound 196]
31 | 1000 to 5000 nM | 1000 to 5000 nM |  |  | CCc1cccc(CC)c1-n1c(C)c(C(=O)NC2CCC(O)CC2)cc(-c2nc(-c3ccc(Cl)cc3)cs2)c1=O (stereo not shown) [Compound 219]
32 | > 20000 nM | 1000 to 5000 nM |  |  | COc1ccc(OC)c(-n2c3c(cc(-c4nnn(-c5ccc(Cl)cc5)n4)c2=O)C(=O)CC(C)(C)C3)c1 [Compound 287]
33 | < 300 nM | 300 to 1000 nM |  |  | CCc1cccc(CC)c1-n1c(C)c(C(=O)N2CCN[C@@H](CO)C2)cc(-c2nc(-c3ccc(Cl)cc3)cs2)c1=O [Compound 220]
34 | 300 to 1000 nM | 300 to 1000 nM |  |  | CCc1cccc(CC)c1-n1c(CC(C)C)c(C(=O)N2CCNC(C(F)(F)F)C2)cc(-c2nc(-c3ccc(Cl)cc3)cs2)c1=O (stereo not shown) [Compound 314]
35 | 1000 to 5000 nM | 5000 to 20000 nM |  |  | CCc1cccc(CC)c1-n1c2c(cc(-c3nc(-c4ccc(Cl)cc4)cs3)c1=O)C(=O)NC2 [Compound 74]
36 | 300 to 1000 nM | < 300 nM |  |  | CCc1cccc(CC)c1-n1c(CC(C)C)c(C(=O)NCC(O)C(F)(F)F)cc(-c2nc(-c3ccc(Cl)cc3)cs2)c1=O (stereo not shown) [Compound 127]
37 | 1000 to 5000 nM | 300 to 1000 nM |  |  | CCc1cccc(CC)c1-n1c(CC(C)C)c(C(=O)N2CCC(CO)C2)cc(-c2nc(-c3ccc(Cl)cc3)cs2)c1=O (stereo not shown) [Compound 89]
38 | 300 to 1000 nM | < 300 nM |  |  | CCc1cccc(CC)c1-n1c(CC(C)C)c(C(=O)N2[C@H](C)CNC[C@@H]2C)cc(-c2nc(-c3ccc(Cl)cc3)cs2)c1=O [Compound 61]
39 |  |  | 300 to 1000 nM | 300 to 1000 nM | CCc1cccc(CC)c1-n1c(CC(C)C)c(C(=O)N2CCNCC2)cc(-c2ccnc(-c3ccc(Cl)cc3)n2)c1=O [Compound 417]
40 | 1000 to 5000 nM | 300 to 1000 nM |  |  | CC1(C)CC(=O)c2cc(-c3nc(-c4ccc(Cl)cc4)cs3)c(=O)n(-c3ccccc3OC3CC3)c2C1 [Compound 25]
41 |  |  | < 300 nM | < 300 nM | CCc1cccc(CC)c1-n1c(C2CC2)c(C(=O)N2CCNCC2)cc(-c2nc(-c3ccc(Cl)cc3)cs2)c1=O [Compound 502]
42 |  |  | 300 to 1000 nM | 300 to 1000 nM | CCc1cccc(CC)c1-n1c(CC(C)C)c(C(=O)N2CCNCC2)cc(-c2nc(-c3ccc(Cl)cc3)c(C(F)(F)F)s2)c1=O [Compound 430]
43 | < 300 nM | < 300 nM |  |  | CC1(C)CC(=O)c2cc(-c3nc(-c4ccc(Cl)cc4)cs3)c(=O)n(-c3ccccc3Cl)c2C1 [Compound 167]
44 | 5000 to 20000 nM | > 20000 nM |  |  | CCc1cccc(CC)c1-n1c(C2CCNCC2)c(C(=O)N2CCNCC2)cc(-c2nc(-c3ccc(Cl)cc3)cs2)c1=O [Compound 670]
45 | 5000 to 20000 nM | 5000 to 20000 nM |  |  | CCc1cccc(CC)c1-n1c(C)c(C(=O)N2CCCC(C(=O)O)C2)cc(-c2nc(-c3ccc(Cl)cc3)cs2)c1=O (stereo not shown) [Compound 259]
46 |  |  | 5000 to 20000 nM | 5000 to 20000 nM | CC(C)=Cc1c(C(=O)N2CCNCC2)cc(-c2nc(-c3ccc(Cl)cc3)cs2)c(=O)n1-c1ccc[nH]c1=O [Compound 616]
47 |  |  | 300 to 1000 nM | < 300 nM | CCc1cccc(CC)c1-n1c(CC(C)C)c(C(=O)N2CCNCC2)cc(-c2nc(-c3ccc(Cl)c(Cl)c3)c(C)s2)c1=O [Compound 551]
